From PMC10775177, “Application of the C3-Methyltransferase StspM1 for the Synthesis of the Natural Pyrroloindole Motif” (ACS Catalysis, 2023)
One block for each compound: values may come before it.

Columns and labels:
StspM1 = test system: T1, StspM1; assay: MTase-Glo bioluminescence assay (SAH formation), Michaelis-Menten; format: biochemical, Streptomyces sp. HPH0547
T1 construct: recombinant from E. coli BL21 Gold (DE3), Ni-NTA purified

[1] = target: C3-methyltransferase StspM1 from Streptomyces sp. HPH0547 (Streptomyces sp. HPH0547); assay: SEC; size exclusion chromatography to determine the oligomerization state; measured weight 70.5 kDa against 61.8 kDa for a dimer

Km (StspM1; first methylation, 1.5 μM enzyme, co-substrate SAM fixed at 50 μM, cWW 0.2-200 μM): 3.86 µM
Compound: O=C1N[C@@H](Cc2c[nH]c3ccccc23)C(=O)N[C@H]1Cc1c[nH]c2ccccc12 [7a, LL-cWW]

Km (StspM1; first methylation, 1.5 μM enzyme, co-substrate SAM fixed at 50 μM, cWW 0.2-200 μM, compound label misprinted as 7c): 14.8 µM
Compound: O=C1N[C@H](Cc2c[nH]c3ccccc23)C(=O)N[C@@H]1Cc1c[nH]c2ccccc12 [7b, DD-cWW]

Compound: C[C@@]12C[C@H]3C(=O)N[C@@H](Cc4c[nH]c5ccccc45)C(=O)N3[C@@H]1Nc1ccccc12 [compound 14, single-methylated LL-cWW]
Km (StspM1; second methylation step): 32.5 µM

stoichiometry N [1]: 2
Compound: C3-methyltransferase StspM1 from Streptomyces sp. HPH0547 (enzyme)
